Columns and labels:
GCH1 = molecular target: T1, GCH1 (Homo sapiens, UniProt P30793); experiment: STD NMR assay with active site reporter ligand GTP; type: binding; conditions: addition of another active site binder
T1 construct: The hGCH1 (42-250, N-terminal 6xHis Tag and TEV cleavage site); 6xHis (N); TEV cleavage site (N); made in house; host or cells: E. coli BL21(DE3)
T1 sequence (P30793 42-250): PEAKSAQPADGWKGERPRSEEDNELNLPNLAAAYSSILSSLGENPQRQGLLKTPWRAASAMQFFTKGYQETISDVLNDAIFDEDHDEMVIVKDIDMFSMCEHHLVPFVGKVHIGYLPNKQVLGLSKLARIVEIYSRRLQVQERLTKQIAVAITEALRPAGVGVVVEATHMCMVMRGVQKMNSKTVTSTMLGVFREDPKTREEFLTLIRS
Text: Supplemental Figure 6: Detection of product formation and STD NMR assay. A) Enzyme activity assay for GCH1 based on colorimetric detection of H2NTP or 1H-NMR detection of formate. […]
inhibitor (e.g. BH4). B) STD NMR is capable to detect GTP binding (green). Addition of another active site binder (8-oxo […]
STD NMR enhancement of substrate GTP in the presence of allosteric regulator BH4 (red). This screening assay allows for the identification of allosteric binders. C) Correlation of activity in functional NMR assay and STD NMR enhancement of active site reporter ligand GTP.
(1 picture or pasted object on this page, not shown here)

GCH1 D127A = molecular target: T2, GCH1 D127A (Homo sapiens, UniProt P30793, D127A); experiment: differential scanning fluorimetry (DSF), D127A; type: binding
T2 construct: The hGCH1 (42-250, N-terminal 6xHis Tag and TEV cleavage site); 6xHis (N); TEV cleavage site (N); made in house; host or cells: E. coli BL21(DE3)
T2 sequence (P30793 42-250 D127A): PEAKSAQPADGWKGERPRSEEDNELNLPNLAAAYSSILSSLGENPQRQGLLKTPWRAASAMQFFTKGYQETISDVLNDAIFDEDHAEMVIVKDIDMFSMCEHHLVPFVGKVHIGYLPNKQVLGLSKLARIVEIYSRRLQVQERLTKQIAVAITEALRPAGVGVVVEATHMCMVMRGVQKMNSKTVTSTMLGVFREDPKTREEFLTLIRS
Procedure: (§1) The Tm of proteins and protein complexes was determined by DSF using the Thermofluor Bio-Rad CFX384 and the Bio-Rad CFX Manager software. Ten micromolar protein solution was equipped with 5× SYPRO Orange Protein Gel Stain (Invitrogen) reaching a total volume of 10 μL. Effector molecules and GFRP were added in different concentrations to test their influence on thermal stability; 384 well plates were heated up using a temperature ramp from 15 °C to 95 °C in 1 °C/min steps.

GCH1 E128A = molecular target: T3, GCH1 E128A (Homo sapiens, UniProt P30793, E128A); experiment: differential scanning fluorimetry (DSF), E128A; type: binding; conditions: protein melting point in presence of GTP
T3 construct: The hGCH1 (42-250, N-terminal 6xHis Tag and TEV cleavage site); 6xHis (N); TEV cleavage site (N); made in house; host or cells: E. coli BL21(DE3)
T3 sequence (P30793 42-250 E128A): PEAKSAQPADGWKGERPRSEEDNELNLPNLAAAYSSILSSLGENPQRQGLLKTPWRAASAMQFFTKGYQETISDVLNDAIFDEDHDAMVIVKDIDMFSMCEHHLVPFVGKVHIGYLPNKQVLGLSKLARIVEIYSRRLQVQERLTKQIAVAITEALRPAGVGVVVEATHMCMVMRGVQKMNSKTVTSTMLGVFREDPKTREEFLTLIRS
Procedure: as §1

GCH1 H126A = molecular target: T4, GCH1 H126A (Homo sapiens, UniProt P30793, H126A); experiment: differential scanning fluorimetry (DSF), H126A; type: binding
T4 construct: The hGCH1 (42-250, N-terminal 6xHis Tag and TEV cleavage site); 6xHis (N); TEV cleavage site (N); made in house; host or cells: E. coli BL21(DE3)
T4 sequence (P30793 42-250 H126A): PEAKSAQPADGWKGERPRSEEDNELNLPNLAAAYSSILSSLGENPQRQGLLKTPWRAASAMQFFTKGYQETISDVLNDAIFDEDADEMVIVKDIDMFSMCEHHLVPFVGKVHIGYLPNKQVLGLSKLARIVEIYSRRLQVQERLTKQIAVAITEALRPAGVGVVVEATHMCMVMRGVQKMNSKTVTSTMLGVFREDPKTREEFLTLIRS
Procedure: as §1

GCH1 R241A = molecular target: T5, GCH1 R241A (Homo sapiens, UniProt P30793, R241A); experiment: differential scanning fluorimetry (DSF), R241A; type: binding
T5 construct: The hGCH1 (42-250, N-terminal 6xHis Tag and TEV cleavage site); 6xHis (N); TEV cleavage site (N); made in house; host or cells: E. coli BL21(DE3)
T5 sequence (P30793 42-250 R241A): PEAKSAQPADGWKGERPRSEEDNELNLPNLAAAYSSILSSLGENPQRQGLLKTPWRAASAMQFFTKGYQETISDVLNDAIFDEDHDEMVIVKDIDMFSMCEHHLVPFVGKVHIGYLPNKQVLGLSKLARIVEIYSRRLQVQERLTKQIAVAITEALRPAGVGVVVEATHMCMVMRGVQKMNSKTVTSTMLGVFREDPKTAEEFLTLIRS
Procedure: as §1

GCH1 F122A = molecular target: T6, GCH1 F122A (Homo sapiens, UniProt P30793, F122A); experiment: differential scanning fluorimetry (DSF), F122A; type: binding
T6 construct: The hGCH1 (42-250, N-terminal 6xHis Tag and TEV cleavage site); 6xHis (N); TEV cleavage site (N); made in house; host or cells: E. coli BL21(DE3)
T6 sequence (P30793 42-250 F122A): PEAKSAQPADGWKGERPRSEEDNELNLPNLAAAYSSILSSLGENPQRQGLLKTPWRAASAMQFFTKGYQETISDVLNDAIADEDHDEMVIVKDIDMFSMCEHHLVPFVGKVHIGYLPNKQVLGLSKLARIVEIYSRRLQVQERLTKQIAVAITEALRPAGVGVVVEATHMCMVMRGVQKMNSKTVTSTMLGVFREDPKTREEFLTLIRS
Procedure: as §1

GCH1 R235A = molecular target: T7, GCH1 R235A (Homo sapiens, UniProt P30793, R235A); experiment: differential scanning fluorimetry (DSF), R235A; type: binding
T7 construct: The hGCH1 (42-250, N-terminal 6xHis Tag and TEV cleavage site); 6xHis (N); TEV cleavage site (N); made in house; host or cells: E. coli BL21(DE3)
T7 sequence (P30793 42-250 R235A): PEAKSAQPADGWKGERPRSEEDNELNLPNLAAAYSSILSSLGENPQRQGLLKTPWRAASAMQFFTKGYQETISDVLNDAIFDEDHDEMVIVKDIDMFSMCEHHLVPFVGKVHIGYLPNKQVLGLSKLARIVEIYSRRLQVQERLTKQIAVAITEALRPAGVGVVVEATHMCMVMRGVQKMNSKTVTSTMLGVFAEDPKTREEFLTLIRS
Procedure: as §1

GCH1 WT = molecular target: T8, GCH1 WT (Homo sapiens, UniProt P30793); experiment: differential scanning fluorimetry (DSF), WT GCH1; type: binding; conditions: protein melting point in presence of GTP
T8 construct: The hGCH1 (42-250, N-terminal 6xHis Tag and TEV cleavage site); 6xHis (N); TEV cleavage site (N); made in house; host or cells: E. coli BL21(DE3)
T8 sequence (P30793 42-250): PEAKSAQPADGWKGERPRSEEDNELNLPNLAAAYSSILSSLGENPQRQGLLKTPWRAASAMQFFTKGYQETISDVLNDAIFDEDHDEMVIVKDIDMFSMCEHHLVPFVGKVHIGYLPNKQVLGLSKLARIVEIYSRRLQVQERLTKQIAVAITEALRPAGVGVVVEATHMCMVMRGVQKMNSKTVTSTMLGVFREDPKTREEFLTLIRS
Procedure: as §1

[1] = substrate: Nc1nc2c(ncn2[C@@H]2O[C@H](COP(=O)(O)OP(=O)(O)OP(=O)(O)O)[C@@H](O)[C@H]2O)c(=O)[nH]1; experiment: enzyme kinetics, H2NTP formation at 330 nm, WT GCH1; type: biochemical, human; conditions: other: substrate GTP 1-2000 µM, without GFRP, not stimulated/inhibited; pH 7.5; 37.0 °C
Procedure: In order to test the role of the key residues H126, D127, E128, R235, and R241 involved in allosteric inhibitor binding and conformational change, various point mutants were prepared and tested for their ability to be stimulated and inhibited by effector molecules in the presence or absence of GFRP. […] Enzyme activity was evaluated using an activity assay measuring the formation of the product H2NTP at 330 nm with increasing GTP concentrations.
GTPCH-I specific enzyme activity was determined by spectrometric measuring of the concentration of its direct product H2NTP. Synergy H1 (BioTek Instruments) and Gen5 2.01 software were used to evaluate H2NTP concentration and the maximal turnover rate (Vmax) within each measuring interval. H2NTP concentration was measured at 330 nm over a measuring period of 2 h using a measuring interval of 2 min to 4 min at 37 °C. Samples were prepared using 2 μM GTPCH-I, varying concentrations of GTP (1 μM to 2,000 µM) and in the absence or presence of 15 mM phenylalanine, 0.1 mM BH4, or 3 μM GFRP. The assay buffer used was 50 mM Tris/HCl, pH 7.5, 100 mM KCl. The specific enzyme activity (A) was calculated using the path length of 0.15 cm and the extinction coefficient […] = 6,300 M^−1⋅cm^−1 H2NTP. […] All enzymatic data were, at least, measured in triplicate (n = 3).

[2] = protein melting point in presence of GTP
[3] = shift of melting point with GTP

Nc1nc2c([nH]c(=O)n2[C@@H]2O[C@H](COP(=O)(O)OP(=O)(O)OP(=O)(O)O)[C@@H](O)[C@H]2O)c(=O)[nH]1 [8-oxo GTP, 8-oxo-GTP]
effect on STD NMR signal of GTP (active site competition) (GCH1): loss of the signal

Nc1nc2c(ncn2[C@@H]2O[C@H](COP(=O)(O)OP(=O)(O)OP(=O)(O)O)[C@@H](O)[C@H]2O)c(=O)[nH]1 [GTP, Guanosine triphosphate]
TM + GTP (GCH1 D127A; [2]): 78.0 °C
ΔTM WT+GTP (GCH1 D127A; [3]): 5.0 °C
TM + GTP (GCH1 E128A): 78.5 °C
TM + GTP (GCH1 H126A; [2]): 80.0 °C
ΔTM WT+GTP (GCH1 H126A; [3]): 6.0 °C
TM + GTP (GCH1 R241A; [2]): 86.2 °C
ΔTM WT+GTP (GCH1 R241A; [3]): 17.7 °C
TM + GTP (GCH1 F122A; [2]): 75.2 °C
ΔTM WT+GTP (GCH1 F122A; [3]): 4.2 °C
TM + GTP (GCH1 R235A; [2]): 81.2 °C
ΔTM WT+GTP (GCH1 R235A; [3]): 11.2 °C
TM + GTP (GCH1 WT): 83.2 °C

B1: GCH1 (WT) (Homo sapiens) (protein)
chain: PEAKSAQPADGWKGERPRSEEDNELNLPNLAAAYSSILSSLGENPQRQGLLKTPWRAASAMQFFTKGYQETISDVLNDAIFDEDHDEMVIVKDIDMFSMCEHHLVPFVGKVHIGYLPNKQVLGLSKLARIVEIYSRRLQVQERLTKQIAVAITEALRPAGVGVVVEATHMCMVMRGVQKMNSKTVTSTMLGVFREDPKTREEFLTLIRS
notes: The hGCH1 (42-250, N-terminal 6xHis Tag and TEV cleavage site); 6xHis (N); TEV cleavage site (N); made in house; host or cells: E. coli BL21(DE3)
Km [1]: 106 µM
